This is an account of results in publication PMC7419010 (PLoS Pathogens, 2020).

“Also recorded” adds a separate entry of the source. Where two headings read alike, the source gives them in different places.

The target of one assay is Lsa-nAChR1 (α1α2β1β2) (Lepeophtheirus salmonis, UniProt A0A7S5PZ05+A0A7S5Q3W4+A0A7S5Q7H3+A0A7S5U9A3). Briefly: cell-based. It counts as cell-based. Conditions: for agonist screening (pre- and co-application protocol): 1 μM; for type of effect on the receptor (agonist / partial-agonist / no effect): dose-response; for Emax: read-out: Max peak (% Ach); for inward current on average: 10 μM sazetidine A. Here is the method:
(§1) Capped cRNAs were synthesized (T7 mMessage mMachine kit, Ambion, Austin, TX, USA) from the linearized vectors containing the different subunits according to the manufacturer’s protocol. cRNA samples were stored at -80°C until use. Oocytes were ordered from Ecocyte (Germany). Oocytes were microinjected using a Roboinject automatic injection system (Multi Channel Systems, Reutlingen, Germany) with 15–25 nl of cRNA solution (30–300 ng/μl per subunit) and then incubated at 18°C in sterile filtered Barth solution containing: NaCl (88 mM), KCl (1 mM), NaHCO3 (2.4 mM), HEPES (10 mM, pH 7.5), MgSO4·7H2O (0.82 mM), Ca(NO3)2·4H2O (0.33 mM), CaCl2·6H2O (0.41 mM), at pH 7.4, and supplemented with 20 μg/ml of kanamycin, 100 U/ml benzylpenicillin and 100 μg/ml streptomycin. Recordings were made 3–5 days post-cRNA injection.
(§2) Oocytes were impaled with two electrodes filled with 3 M KCl, and their membrane potentials were maintained at -80 mV throughout the experiment. Currents evoked by ACh or drugs were recorded using an automated process equipped with standard two-electrode voltage-clamp configuration (HiClamp, MultiChannel Systems). The principle of this system differs from standard electrophysiology because, instead of applying the compound in the perfusion, the oocyte is moved into a well from a 96-well microtiter plate containing the desired solution. Data were captured at 100 Hz, filtered at 10 Hz, and analyzed using proprietary data acquisition and analysis software running under Matlab (Mathworks Inc., Natick, MA, USA). Additional analyses were performed in Excel (Microsoft, Redmond, WA, USA). […] Concentration-activation curves were fitted with the equation: Y=100/1+10^H(logEC50−X) (1) where Y is the normalized response, logEC50 is the logarithm of the concentration of agonist eliciting half-maximal current amplitude, X is the log of dose or concentration, and H is the slope factor or Hill slope. Individual curves were standardized to the initial ACh (100 μM) application amplitude and subsequently averaged. EC50 values were determined from the mean of at least 3 or more cells.
(§3) Dose-response curves were obtained by sequential applications for 10s of increasing concentrations of ACh or drugs to oocytes expressing Lsa-nAChR1 or Lsa-nAChR2. A total time of 90 s time was allowed between applications for the channel to recover from any desensitization. To test the antagonistic effect of DHbE (Fig 5) and for the screening protocol (Fig 6), cells that evoked a significant current with ACh were exposed to the test compounds at 10 μM respectively 1 μM using a pre-application of 45 s and co-application of 10 s with ACh (1 μM).

A further assay concerns the target Lsa-nAChR2 (α3β1β2) (Lepeophtheirus salmonis, UniProt A0A7S5PZ03+A0A7S5PZ05+A0A7S5Q7H3). Briefly: cell-based. It is filed as cell-based. Conditions: for type of effect on the receptor (agonist / partial-agonist / super-agonist / no effect): dose-response; for agonist screening (pre- and co-application protocol): 1 μM; for Max peak (% Ach): maximal peak current compared to ACh 100 μM. Here is the method:
as §1, §2, §3

For another assay, the system named is L. salmonis (preadult 2). The experiment in a line: In-vivo exposure of preadult salmon lice to 1 mg/L for 24 h. Conditions: for Efficacy at 1.0 mg/L (%): preadult 2 parasites. Also on record: species or system Lepeophtheirus salmonis. Here is the method:
The exposure of preadult 2 parasites were conducted as described in [48]. The parasites originated from a salmon louse strain sensitive to all tested compounds [49]. The cultivation of salmon lice was conducted at the NIVA Marine Research Station Solbergstrand in the Oslofjord. Laboratory reared Atlantic salmon of were kept in 1 m^3 tanks supplied with running seawater, salinity 33–35 parts per thousand, temperature 7–9°C. Salmon lice egg strings were harvested from adult females and hatched according to [50]. The preadult salmon lice were harvested on the day of exposure. Fish were anaesthetized with 100 mg/L metacaine for 2 min. The parasites were gently removed from the fish with forceps, placed directly in glass containers filled with 1000 mL filtered seawater and exposed to the compounds within 4 h.
Each group of parasites was exposed to 1 mg/L of the test substance for 24 h. The compounds were dissolved in DMSO and an emulsifier was added immediately before dilution with water. The bottles were finally incubated at 10°C according to [49], with continuous air supply, for 24 h.
After the incubation period was over, the solution with parasites was poured out through a funnel containing a filter. Parasites remaining attached to the bottle wall were classified as alive. Immobilized parasites were collected from the filter. […] All parasites in the two groups were counted and classified according to sex and developmental stage.

Setting [1] is: Xenopus oocytes, 1:1 (α:β) ratio.
Setting [2] is: EC50 (nM), Xenopus oocytes, 1:1 (α:β) ratio.
Where [3] appears, read: calculated EC50, text values in μM, 1:1 (α:β) ratio.

Chain of Lsa-nAChR1 (α1α2β1β2) (A0A7S5PZ05 entry or part of it): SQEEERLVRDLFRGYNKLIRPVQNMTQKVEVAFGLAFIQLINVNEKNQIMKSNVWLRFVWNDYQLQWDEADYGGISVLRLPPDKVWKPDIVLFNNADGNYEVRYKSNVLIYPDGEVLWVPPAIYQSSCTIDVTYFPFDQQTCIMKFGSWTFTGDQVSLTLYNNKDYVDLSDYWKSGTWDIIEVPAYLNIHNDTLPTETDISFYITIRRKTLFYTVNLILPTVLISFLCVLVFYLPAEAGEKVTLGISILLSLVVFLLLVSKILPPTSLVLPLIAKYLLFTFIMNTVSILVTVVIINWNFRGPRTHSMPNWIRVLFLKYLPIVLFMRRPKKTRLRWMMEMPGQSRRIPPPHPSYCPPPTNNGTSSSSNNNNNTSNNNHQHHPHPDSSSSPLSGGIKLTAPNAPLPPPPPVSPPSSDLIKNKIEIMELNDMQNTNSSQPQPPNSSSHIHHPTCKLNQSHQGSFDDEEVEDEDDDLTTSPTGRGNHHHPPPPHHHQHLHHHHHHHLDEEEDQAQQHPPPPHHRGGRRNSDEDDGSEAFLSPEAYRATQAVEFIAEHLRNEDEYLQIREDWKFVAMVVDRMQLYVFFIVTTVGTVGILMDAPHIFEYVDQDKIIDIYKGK
Chain of Lsa-nAChR1 (α1α2β1β2) (A0A7S5Q3W4 entry or part of it): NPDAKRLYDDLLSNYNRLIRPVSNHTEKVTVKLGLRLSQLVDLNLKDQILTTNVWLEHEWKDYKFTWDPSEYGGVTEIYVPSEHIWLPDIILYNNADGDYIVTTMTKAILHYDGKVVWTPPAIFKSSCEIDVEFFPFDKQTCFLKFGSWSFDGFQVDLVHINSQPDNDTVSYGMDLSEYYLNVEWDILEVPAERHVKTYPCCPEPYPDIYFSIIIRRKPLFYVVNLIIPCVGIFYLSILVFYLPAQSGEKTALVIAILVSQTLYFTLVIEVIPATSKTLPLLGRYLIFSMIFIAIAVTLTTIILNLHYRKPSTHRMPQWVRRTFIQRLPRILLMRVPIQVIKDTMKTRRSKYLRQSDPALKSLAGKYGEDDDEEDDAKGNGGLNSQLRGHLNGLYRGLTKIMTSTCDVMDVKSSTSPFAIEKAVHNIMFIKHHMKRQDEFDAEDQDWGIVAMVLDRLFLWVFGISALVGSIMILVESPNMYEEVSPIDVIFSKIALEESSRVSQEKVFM
Chain of Lsa-nAChR1 (α1α2β1β2) (A0A7S5U9A3 entry or part of it): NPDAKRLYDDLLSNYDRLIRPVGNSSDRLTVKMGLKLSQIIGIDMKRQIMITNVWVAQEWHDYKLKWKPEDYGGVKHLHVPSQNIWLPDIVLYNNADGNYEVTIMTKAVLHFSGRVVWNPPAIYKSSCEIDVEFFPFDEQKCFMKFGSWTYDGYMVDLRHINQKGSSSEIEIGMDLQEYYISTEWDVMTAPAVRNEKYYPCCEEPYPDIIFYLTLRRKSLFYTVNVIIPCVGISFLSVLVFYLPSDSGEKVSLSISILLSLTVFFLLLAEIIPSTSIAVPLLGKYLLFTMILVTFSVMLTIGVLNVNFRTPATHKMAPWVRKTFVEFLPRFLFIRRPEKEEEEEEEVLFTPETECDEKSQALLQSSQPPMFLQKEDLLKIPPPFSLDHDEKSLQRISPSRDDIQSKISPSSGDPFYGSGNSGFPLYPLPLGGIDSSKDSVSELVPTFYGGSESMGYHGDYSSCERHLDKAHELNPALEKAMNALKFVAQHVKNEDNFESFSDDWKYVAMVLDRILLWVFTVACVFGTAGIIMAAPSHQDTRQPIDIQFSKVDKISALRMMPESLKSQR
Chain of Lsa-nAChR1 (α1α2β1β2) (A0A7S5Q7H3 entry or part of it): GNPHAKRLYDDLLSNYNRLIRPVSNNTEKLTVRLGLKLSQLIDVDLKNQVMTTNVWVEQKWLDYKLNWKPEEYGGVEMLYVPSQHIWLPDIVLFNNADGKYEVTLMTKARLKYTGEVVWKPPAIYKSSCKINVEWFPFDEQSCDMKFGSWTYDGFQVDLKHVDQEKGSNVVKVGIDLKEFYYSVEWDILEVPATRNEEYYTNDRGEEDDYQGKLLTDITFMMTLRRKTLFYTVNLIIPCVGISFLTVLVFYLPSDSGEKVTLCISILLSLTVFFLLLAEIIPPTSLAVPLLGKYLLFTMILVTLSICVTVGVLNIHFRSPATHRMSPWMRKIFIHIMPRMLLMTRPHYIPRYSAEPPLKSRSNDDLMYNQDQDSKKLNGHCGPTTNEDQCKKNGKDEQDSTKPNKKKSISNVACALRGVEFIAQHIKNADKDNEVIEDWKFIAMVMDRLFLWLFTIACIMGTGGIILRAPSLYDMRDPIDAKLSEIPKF

The EC50 is the concentration that produces a half-maximal response. Take `C/C(=N\C#N)N(C)Cc1ccc(Cl)nc1` [Acetamiprid]: on Lsa-nAChR1 (α1α2β1β2), the EC50 was determined as 10300 nM and the Emax was 34.1%. For the same molecule, on Lsa-nAChR1 (α1α2β1β2) (1:1 (α:β) ratio), the “agonist screening (pre- and co-application protocol)” value (shortened to “agonist screening”) is “agonists”; the “type of effect on the receptor (agonist / partial-agonist / no effect)” value (“type … (agonist / partial-agonist / no effect)” for short) is recorded as “partial-agonist”. For the same molecule, the “EC50 (nM)” value on Lsa-nAChR2 (α3β1β2) (setting [1]) is given as “No effect”. Besides, the “type of effect on the receptor (agonist / partial-agonist / super-agonist / no effect)” value at Lsa-nAChR2 (α3β1β2) (1:1 (α:β) ratio) is “did not affect; also recorded: did not demonstrate any ex-vivo effect”. Moreover, in the assay on L. salmonis (preadult 2), the “lethal effect / mortality of preadult parasites” value (“lethal effect / mortality” below) is recorded as “significant lethal effect; also recorded: high mortality rates” and the “Efficacy at 1.0 mg/L (%)” value came out at 89.5%.

For `COP(=O)(OC)SCn1c(=O)oc2cc(Cl)cnc21` [Azamethiphos], the “EC50 (nM)” value at Lsa-nAChR1 (α1α2β1β2) (setting [1]) and at Lsa-nAChR2 (α3β1β2) (setting [1]) was “No effect” in each case.

`CN/C(=N\[N+](=O)[O-])NCc1cnc(Cl)s1` [Clothianidin]: at Lsa-nAChR1 (α1α2β1β2), the half-maximal effective concentration (EC50) came out at 37 nM and the Emax was 41.9%. Also, at Lsa-nAChR1 (α1α2β1β2) (1:1 (α:β) ratio), the “agonist screening” value is “agonists”; the “type … (agonist / partial-agonist / no effect)” value was “partial-agonists”. The midpoint of the response at Lsa-nAChR2 (α3β1β2), the EC50, lay at 81 nM. For the same molecule, on Lsa-nAChR2 (α3β1β2) (1:1 (α:β) ratio), the “agonist screening” value is listed as “agonists”; the “type of effect on the receptor (agonist / partial-agonist / super-agonist / no effect)” value is “partial-agonists”; the “Max peak (% Ach)” value is listed as 75.4%. Moreover, in the assay with L. salmonis (preadult 2), the “Efficacy at 1.0 mg/L (%)” value is 54.3%.

As to `CC1(C)C(C=C(Cl)Cl)C1C(=O)OC(C#N)c1cccc(Oc2ccccc2)c1` (stereo not drawn) [Cypermethrin], the “EC50 (nM)” value at Lsa-nAChR1 (α1α2β1β2) (setting [1]) and on Lsa-nAChR2 (α3β1β2) (setting [1]) was “No effect” throughout.

With `CC1(C)[C@H](C(=O)O[C@H](C#N)c2cccc(Oc3ccccc3)c2)[C@@H]1C=C(Br)Br` [Deltamethrin], the “EC50 (nM)” value at Lsa-nAChR1 (α1α2β1β2) (setting [1]) and at Lsa-nAChR2 (α3β1β2) (setting [1]) was “No effect” each time.

For the molecule `CN/C(=N/CC1CCOC1)N[N+](=O)[O-]` (stereo not drawn) [Dinotefuran], on Lsa-nAChR1 (α1α2β1β2) (1:1 (α:β) ratio), the “agonist screening” value was “agonists”; the “type … (agonist / partial-agonist / no effect)” value is on record as “partial-agonists”. Besides, the EC50 at Lsa-nAChR1 (α1α2β1β2) (setting [2]) worked out at 220 nM. In addition, the Emax on Lsa-nAChR1 (α1α2β1β2) was determined as 69.8%. In addition, at Lsa-nAChR2 (α3β1β2) (1:1 (α:β) ratio), the “agonist screening” value is listed as “agonists”; the “type of effect on the receptor (agonist / partial-agonist / super-agonist / no effect)” value is “super-agonist”; the “Max peak (% Ach)” value was found to be 110.2%. Moreover, the EC50 at Lsa-nAChR2 (α3β1β2) (setting [2]) came to 757 nM. For the same molecule, the “Efficacy at 1.0 mg/L (%)” value in the assay on L. salmonis (preadult 2) is 100.0%.

With `O=[N+]([O-])NC1=NCCN1Cc1ccc(Cl)nc1` [Imidacloprid], on Lsa-nAChR1 (α1α2β1β2), the EC50 amounted to 69 nM and the Emax worked out at 31.8%. The “agonist screening” value on Lsa-nAChR1 (α1α2β1β2) (1:1 (α:β) ratio) is reported as “agonists”. Moreover, the “EC50 (nM)” value on Lsa-nAChR2 (α3β1β2) (setting [1]) is “No effect”. Further, the “type of effect on the receptor (agonist / partial-agonist / super-agonist / no effect)” value at Lsa-nAChR2 (α3β1β2) (1:1 (α:β) ratio) is “no effect; also recorded: did not affect; also recorded: did not demonstrate any ex-vivo effect”. In addition, in the assay with L. salmonis (preadult 2), the “lethal effect / mortality” value is recorded as “significant lethal effect; also recorded: high mortality rates” and the “Efficacy at 1.0 mg/L (%)” value is on record as 100.0%.

Consider `CN1CCC[C@H]1c1cccnc1` [Nicotine], for which the 50% effective concentration (EC50) on Lsa-nAChR1 (α1α2β1β2) (setting [2]) is 3950 nM; at Lsa-nAChR1 (α1α2β1β2) (setting [3]), 3950 nM; at Lsa-nAChR2 (α3β1β2) (setting [2]), 9980 nM; on Lsa-nAChR2 (α3β1β2) (setting [3]), 9980 nM. Further, the “type … (agonist / partial-agonist / no effect)” value on Lsa-nAChR1 (α1α2β1β2) (1:1 (α:β) ratio) is given as “partial-agonist”. Also, at Lsa-nAChR1 (α1α2β1β2), the Emax was 27.9%. Also, the “type of effect on the receptor (agonist / partial-agonist / super-agonist / no effect)” value at Lsa-nAChR2 (α3β1β2) (1:1 (α:β) ratio) is given as “partial-agonist”. Also, the “Max peak (% Ach)” value at Lsa-nAChR2 (α3β1β2) (1:1 (α:β) ratio) is on record as 16.1%.

On to `CCN(Cc1ccc(Cl)nc1)/C(=C/[N+](=O)[O-])NC` [Nitenpyram], for which, on Lsa-nAChR1 (α1α2β1β2), the EC50 is 45 nM and the Emax turned out to be 27.4%. For the same molecule, at Lsa-nAChR1 (α1α2β1β2) (1:1 (α:β) ratio), the “agonist screening” value is given as “agonists”; the “type … (agonist / partial-agonist / no effect)” value was “partial-agonists”. The molecule also gave a half-maximal effective concentration (EC50) on Lsa-nAChR2 (α3β1β2) of 381 nM. In addition, at Lsa-nAChR2 (α3β1β2) (1:1 (α:β) ratio), the “agonist screening” value is listed as “agonists”; the “type of effect on the receptor (agonist / partial-agonist / super-agonist / no effect)” value is on record as “partial-agonists”; the “Max peak (% Ach)” value is 70.1%. In addition, in the assay on L. salmonis (preadult 2), the “Efficacy at 1.0 mg/L (%)” value worked out at 17.7%.

On to `N#C/N=C1\SCCN1Cc1ccc(Cl)nc1` [Thiacloprid], for which, at Lsa-nAChR1 (α1α2β1β2) (1:1 (α:β) ratio), the “agonist screening” value is recorded as “agonists”; the “type … (agonist / partial-agonist / no effect)” value is “partial-agonist”. The EC50 on Lsa-nAChR1 (α1α2β1β2) (setting [2]) is 12 nM. Also, at Lsa-nAChR1 (α1α2β1β2), the Emax came out at 6.1%. Also, at Lsa-nAChR2 (α3β1β2) (1:1 (α:β) ratio), the “agonist screening” value is “agonists”; the “type of effect on the receptor (agonist / partial-agonist / super-agonist / no effect)” value was “did not show any effect”. Besides, the “EC50 (nM)” value on Lsa-nAChR2 (α3β1β2) (setting [1]) is given as “No effect”. The “type of effect on the receptor (agonist / partial-agonist / super-agonist / no effect)” value at Lsa-nAChR2 (α3β1β2) (1:1 (α:β) ratio, listed as thiacloprid) was “did not affect; also recorded: did not demonstrate any ex-vivo effect”. Also, in the assay on L. salmonis (preadult 2), the “lethal effect / mortality” value is listed as “significant lethal effect; also recorded: high mortality rates” and the “Efficacy at 1.0 mg/L (%)” value was 100.0%.

`CN1COCN(Cc2cnc(Cl)s2)/C1=N\[N+](=O)[O-]` [Thiamethoxam]: the “EC50 (nM)” value at Lsa-nAChR1 (α1α2β1β2) (setting [1]) and on Lsa-nAChR2 (α3β1β2) (setting [1]) was “No effect” throughout. Moreover, the “Efficacy at 1.0 mg/L (%)” value in the assay on L. salmonis (preadult 2) was determined as 0.0%.

For `OCCCCC#Cc1cncc(OC[C@@H]2CCN2)c1` [sazetidine A, Sazetidine A], the “inward current on average” value on Lsa-nAChR1 (α1α2β1β2) (α:β = 1:10, n = 3) came to 0.22 μA; on Lsa-nAChR1 (α1α2β1β2) (α:β = 10:1, n = 3), 0.24 μA; at Lsa-nAChR2 (α3β1β2) (10 μM sazetidine A, α:β = 10:1, n = 3 (assignment uncertain)), 0.50 μA. Besides, the “responsiveness to sazetidine A” value on Lsa-nAChR2 (α3β1β2) (10 μM, α:β = 10:1) is on record as “responsive”.

Consider Emamectin, for which the “EC50 (nM)” value on Lsa-nAChR1 (α1α2β1β2) (setting [1]) and at Lsa-nAChR2 (α3β1β2) (setting [1]) was “No effect” in each case.
